# According to ChEMBL document CHEMBL5608235, “Tricyclic Benzo[1,3]oxazinyloxazolidinones as Potent Antibacterial Agents against Drug-Resistant Pathogens” (J Med Chem, 2024):
# Calls of active or inactive are those of the source. The calls are words filed in the database; no cut-off is given here.
# Key:
# [1] = Cmax in BALB/c mouse at 1 mg/kg,iv administration measured upto 24 hrs by LC-MS/MS analysis; format: ADME, organism-based; details: in vivo
# Cell membrane [2] = assay: Disruption of cell membrane in methicillin resistant Staphylococcus aureus ATCC 33592 assessed as change in morphology at 0.5 ug/ml incubated for 30 mins by Scanning electron microscopic analysis; format: cell membranes; details: dose 0.5 µg/ml
# Staphylococcus aureus [3] = assay: Antibacterial activity against Linezolid resistant Staphylococcus aureus assessed as inhibition of bacterial growth incubated for 7 days by alamar blue assay; format: functional; details: 168 h, time 7 day
# [4] = system: Staphylococcus epidermidis; assay: Antibacterial activity against methicillin resistant Staphylococcus epidermidis clinical isolate 20-1 assessed as inhibition of bacterial growth incubated for 7 days by alamar blue assay; format: functional; details: clinical isolate 20-1, 168 h, time 7 day
# [5] = Plasma protein binding in BALB/c mouse at 1 mg/kg,iv administration measured upto 24 hrs by LC-MS/MS analysis; format: ADME, organism-based; details: read-out: PPB (converted)
# [6] = Metabolic stability in human liver microsomes assessed as compound remaining at 10 uM incubated for 60 mins in absence of NADPH by LC-MS/MS analysis; format: ADME, Microsome; details: read-out: Stability
# Staphylococcus aureus [7] = assay: (§1) Antibacterial activity against methicillin resistant Staphylococcus aureus ATCC 33592 infected in cyclophosphamide-induced immunosuppressed Kunming mouse assessed as decrease in IL-1beta level at po administration measured after 24 hrs by ELISA; format: functional, organism-based
# Staphylococcus aureus [8] = assay: Antibacterial activity against methicillin resistant Staphylococcus aureus ATCC 33592 infected in cyclophosphamide-induced immunosuppressed Kunming mouse assessed as decrease in IL-6 level at po administration measured after 24 hrs by ELISA; format: functional, organism-based
# Staphylococcus aureus [9] = assay: Inhibition of biofilm formation in Staphylococcus aureus ATCC 29213 at 1 to 10 ug/ml incubated for 48 hrs by crystal violet staining based assay; format: functional, organism-based; details: dose 1-10 µg/ml
# [10] = Metabolic stability in ICR mouse liver microsomes assessed as compound remaining at 10 uM incubated for 60 mins in absence of NADPH by LC-MS/MS analysis; format: ADME, Microsome; details: read-out: Stability
# Staphylococcus aureus [11] = assay: Antibacterial activity against methicillin resistant Staphylococcus aureus ATCC 33592 infected in cyclophosphamide-induced immunosuppressed Kunming mouse by measuring survival rate of mouse at 50 mg/kg,po administration measured for 7 days; format: functional; details: ATCC 33592, 168 h, time 7 day
# Cell membrane [12] = assay: Disruption of cell membrane integrity in methicillin resistant Staphylococcus aureus ATCC 33592 assessed as increase in red fluorescence at 1 ug/ml incubated for 1 hr by […] and propidium iodide double staining based confocal microscopic analysis; format: cell membranes; details: dose 1.0 µg/ml
# Staphylococcus aureus [13] = assay: as §1, with “reduction” for “decrease”, “congestion in spleen” for “IL-1beta level”, “10 mg/kg,po” for “po”, “hematoxylin and eosin staining based microscopy” for “ELISA”; format: functional, organism-based
# Staphylococcus aureus [14] = assay: Antibacterial activity against methicillin resistant Staphylococcus aureus ATCC 33592 infected in cyclophosphamide-induced immunosuppressed Kunming mouse assessed as reduction in histopathological change in spleen at 50 mg/kg,po administration measured after 24 hrs by hematoxylin and eosin staining based microscopy; format: functional, organism-based
# [15] = system: Staphylococcus epidermidis; assay: Antibacterial activity against Staphylococcus epidermidis ATCC12228 assessed as inhibition of bacterial growth incubated for 18 hrs by microdilution broth assay; format: functional
smiles,measurement,setting,value
CC(=O)NC[C@@H]1OC(=O)N2Cc3cc(-c4ccc(C#N)cc4)c(F)cc3O[C@@H]12,Cmax,[1],814 ng/mL
same,Activity,Cell membrane [2],Active
same,MIC,Staphylococcus aureus [3],2 µg/mL
same,MIC,[4],0.06 µg/mL
same,fraction unbound at 24 h,[5],0.239
same,"remaining at 1 h, 10 µM",[6],120%
same,Activity,Staphylococcus aureus [7],Dose-Dependent Effect
same,Activity,Staphylococcus aureus [8],Dose-Dependent Effect
same,inhibition,Staphylococcus aureus [9],Active
same,"remaining at 1 h, 10 µM",[10],101%
same,survival at 50 mg/kg,Staphylococcus aureus [11],100%
same,Activity,Cell membrane [12],Active
same,Activity,Staphylococcus aureus [13],Active
same,Activity,Staphylococcus aureus [14],Active
same,MIC,[15],0.032 µg/mL
